Measured values as given in patent US9179674B2, “Macrocyclic picolinamide compounds with fungicidal activity” (DOW AGROSCIENCES LLC, priority 2013, dated 2015).
Read-outs that look alike come from different tables or passages of the source.

What was measured:
[1] = tested on: Mycosphaerella graminicola; Anamorph: Septoria tritici; assay: Leaf Blotch of Wheat fungicidal activity (SEPTTR); format: in vivo; details: Zymoseptoria tritici; for pest or weed control at 100 ppm: rate 100 ppm; for pest or weed control at 121.5 g/ha: rate 121.5 g/H
How it was run: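 Acetone solutions diluted with nine volumes of water containing 110 ppm Triton X-100, sprayed to run-off on first-leaf wheat seedlings (Yuma), inoculated with S. tritici before or after treatment. Plants held in dew chambers, then in a 20 °C greenhouse. Disease severity (0–100%) scored when untreated plants fully symptomatic; % control relative to untreated.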

Puccinia triticina = assay: Wheat Brown Rust fungicidal activity (PUCCRT); format: in vivo; details: Puccinia triticina; for pest or weed control at 100 ppm: rate 100 ppm; for pest or weed control at 121.5 g/ha: rate 121.5 g/H
How it was run: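 Yuma wheat seedlings at first-leaf stage sprayed to run-off (acetone solution in water with 110 ppm Triton X-100) or track-sprayed as EC with 0.1% Trycol 5941; inoculated with P. triticina spores before or after treatment. Overnight dark dew at 22° C., then greenhouse 24° C.; disease severity 0–100% gives percent control vs untreated.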

[2] = 24 h, 1 Day Protectant, read-out: Disease control SEPTTR 1DP
[3] = 72 h, 3 Day Curative, read-out: Disease control SEPTTR 3DC
[4] = 24 h, 1 Day Protectant, read-out: Disease control PUCCRT 1DP
[5] = 72 h, 3 Day Curative, read-out: Disease control PUCCRT 3DC

Row | SMILES | pest or weed control at 100 ppm [1, 2] [%] | pest or weed control at 100 ppm [1, 3] [%] | pest or weed control at 100 ppm (Puccinia triticina; [4]) [%] | pest or weed control at 100 ppm (Puccinia triticina; [5]) [%] | melting point [°C] | pest or weed control at 121.5 g/ha [1, 2] [%] | pest or weed control at 121.5 g/ha [1, 3] [%] | pest or weed control at 121.5 g/ha (Puccinia triticina; [4]) [%] | pest or weed control at 121.5 g/ha (Puccinia triticina; [5]) [%]
1 | COc1ccnc(C(=O)N[C@H]2COC[C@H](Cc3ccc(F)cc3)[C@@H](OC(=O)C3CC3)[C@H](C)OC2=O)c1O [Compound F13] | 80 to 100 | 80 to 100 | 80 to 100 | 80 to 100 | 68 to 73 |  |  |  | 
2 | COc1ccnc(C(=O)N[C@H]2COC[C@H](Cc3ccc(F)cc3)[C@@H](OC(=O)C(C)C)[C@H](C)OC2=O)c1O [Compound F14] | 80 to 100 | 80 to 100 | 80 to 100 | 80 to 100 | 66 to 71 |  |  |  | 
3 | COc1ccnc(C(=O)N[C@H]2COC[C@H](Cc3ccc(Cl)cc3Cl)[C@@H](OC(=O)C(C)C)[C@H](C)OC2=O)c1O [Compound F41] | 80 to 100 | 80 to 100 | 80 to 100 |  | 79 to 82 |  |  |  | 
4 | COc1ccnc(C(=O)N[C@H]2COC[C@H](Cc3ccc(Cl)cc3Cl)[C@@H](OCC(C)C)[C@H](C)OC2=O)c1O [Compound F42] | 80 to 100 | 80 to 100 | 80 to 100 | 80 to 100 | 60 to 64 |  |  |  | 
5 | CCCCCO[C@@H]1[C@@H](Cc2ccc(Cl)cc2Cl)COC[C@H](NC(=O)c2nccc(OC)c2O)C(=O)O[C@H]1C [Compound F43] | 80 to 100 | 0 to 80 | 0 to 80 |  | 50 to 54 |  |  |  | 
6 | COc1ccnc(C(=O)N[C@H]2COC[C@H](CC3CCCC3)[C@@H](OC(=O)C(C)C)[C@H](C)OC2=O)c1O [Compound F45] | 80 to 100 | 80 to 100 | 80 to 100 | 0 to 80 | 55 to 59 |  |  |  | 
7 | COc1ccnc(C(=O)N[C@H]2COC[C@H](CC3CCCC3)[C@@H](OCC(C)C)[C@H](C)OC2=O)c1O [Compound F46] | 80 to 100 | 80 to 100 | 80 to 100 | 80 to 100 | 132 to 134 |  |  |  | 
8 | CCCCCO[C@@H]1[C@@H](CC2CCCC2)COC[C@H](NC(=O)c2nccc(OC)c2O)C(=O)O[C@H]1C [Compound F47] | 80 to 100 | 80 to 100 | 80 to 100 | 80 to 100 | 109 to 111 |  |  |  | 
9 | COc1ccnc(C(=O)N[C@H]2COC[C@H](CCc3ccccc3)[C@@H](OCCCC(F)(F)F)[C@H](C)OC2=O)c1OC(C)=O [Compound F49] | 80 to 100 | 80 to 100 | 80 to 100 | 80 to 100 | 59 to 64 | 80 to 100 | 80 to 100 | 80 to 100 | 0 to 80
10 | COc1ccnc(C(=O)N[C@H]2COC[C@H](CCc3ccccc3)[C@@H](OCC(C)C)[C@H](C)OC2=O)c1OC(C)=O [Compound F50] | 80 to 100 | 80 to 100 | 80 to 100 | 80 to 100 | 61 to 65 |  |  |  | 
11 | COc1ccnc(C(=O)N[C@H]2COC[C@H](Cc3cccc4ccccc34)[C@@H](OC(=O)C(C)C)[C@H](C)OC2=O)c1OC(C)=O [Compound F51, (3S,6S,7R,8S)-3-(3-acetoxy-4-methoxypicolinamido)-6-methyl-8-(naphthalen-1-ylmethyl)-4-oxo-1,5-dioxonan-7-yl isobutyrate] | 80 to 100 | 80 to 100 | 80 to 100 | 0 to 80 | 104 to 108 |  |  |  | 
12 | CCCCCO[C@@H]1[C@@H](Cc2cccc3ccccc23)COC[C@H](NC(=O)c2nccc(OC)c2OC(C)=O)C(=O)O[C@H]1C [Compound F52] | 80 to 100 | 80 to 100 | 80 to 100 | 0 to 80 | 85 to 91 |  |  |  | 
13 | COc1ccnc(C(=O)N[C@H]2COC[C@H](Cc3ccc(C)cc3)[C@@H](OC(=O)C(C)C)[C@H](C)OC2=O)c1OC(C)=O [Compound F54] | 80 to 100 | 80 to 100 | 80 to 100 | 80 to 100 | 88 to 93 | 80 to 100 | 80 to 100 | 80 to 100 | 0 to 80
14 | COc1ccnc(C(=O)N[C@H]2COC[C@H](Cc3ccc(F)cc3)[C@@H](OC(=O)C(C)C)[C@H](C)OC2=O)c1OC(C)=O [Compound F56] | 80 to 100 | 80 to 100 | 80 to 100 | 80 to 100 | 74 to 79 |  |  |  | 
15 | COc1ccnc(C(=O)N[C@H]2COC[C@H](Cc3ccc(Cl)cc3Cl)[C@@H](OCC(C)C)[C@H](C)OC2=O)c1OC(C)=O [Compound F74] | 80 to 100 | 80 to 100 | 80 to 100 | 80 to 100 | 69 to 73 |  |  |  | 
16 | CCCCCO[C@@H]1[C@@H](Cc2ccc(Cl)cc2Cl)COC[C@H](NC(=O)c2nccc(OC)c2OC(C)=O)C(=O)O[C@H]1C [Compound F75] | 80 to 100 | 80 to 100 | 80 to 100 | 80 to 100 | 55 to 59 | 80 to 100 | 80 to 100 | 80 to 100 | 0 to 80
17 | COc1ccnc(C(=O)N[C@H]2COC[C@H](Cc3ccc(Cl)cc3Cl)[C@@H](Oc3ccc(C)cc3)[C@H](C)OC2=O)c1OC(C)=O [Compound F76] | 0 to 80 |  | 80 to 100 |  | 97 to 101 | 80 to 100 |  | 80 to 100 | 0 to 80
18 | COc1ccnc(C(=O)N[C@H]2COC[C@H](CC3CCCC3)[C@@H](OC(=O)C(C)C)[C@H](C)OC2=O)c1OC(C)=O [Compound F77] | 80 to 100 | 80 to 100 | 80 to 100 | 80 to 100 | 66 to 69 | 80 to 100 | 80 to 100 | 80 to 100 | 80 to 100
19 | COc1ccnc(C(=O)N[C@H]2COC[C@H](CC3CCCC3)[C@@H](OCC(C)C)[C@H](C)OC2=O)c1OC(C)=O [Compound F78] | 80 to 100 | 80 to 100 | 80 to 100 | 80 to 100 | 56 to 59 |  |  |  | 
20 | CCCCCO[C@@H]1[C@@H](CC2CCCC2)COC[C@H](NC(=O)c2nccc(OC)c2OC(C)=O)C(=O)O[C@H]1C [Compound F79] | 80 to 100 | 80 to 100 | 80 to 100 | 80 to 100 | 46 to 51 | 80 to 100 | 80 to 100 | 80 to 100 | 0 to 80
